From patent US20150087053A1, “COMPOSITIONS AND METHODS FOR INCREASING THE EXPRESSION AND SIGNALLING OF PROTEINS ON CELL SURFACES” (THE JOHNS HOPKINS UNIVERSITY, priority 2013, published 2015)
Entries after “also recorded” stand apart in the source; their conditions may differ.

Assays:
Olfr691 = biological target: T1, Olfr691 (Mus musculus, UniProt Q8VGW5); assay: CRE luciferase reporter assay (Firefly:Renilla ratio), Olfr691 constructs; conditions: 0.1-5 mM isovaleric acid
T1 sequence (Q8VGW5 1-322): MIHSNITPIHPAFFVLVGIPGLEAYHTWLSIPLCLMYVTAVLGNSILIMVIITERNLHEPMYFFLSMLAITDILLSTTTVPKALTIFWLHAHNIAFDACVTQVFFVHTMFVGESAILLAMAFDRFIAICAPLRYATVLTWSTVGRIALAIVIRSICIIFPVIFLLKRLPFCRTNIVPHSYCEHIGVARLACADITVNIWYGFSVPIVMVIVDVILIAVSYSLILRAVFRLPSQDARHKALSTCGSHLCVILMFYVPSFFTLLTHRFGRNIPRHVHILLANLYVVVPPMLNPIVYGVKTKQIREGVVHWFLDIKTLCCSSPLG

mOREG = biological target: T2, mOREG (Mus musculus, UniProt Q920P2); assay: CRE luciferase reporter assay (Firefly:Renilla ratio), mOREG constructs; format: cell-based, murine; conditions: Rho-mOREG, Lucy-mOREG, no RTP1S, 100-300 μM eugenol
T2 construct: The mOR-EG full-length construct, containing N-terminal Flag/Rho tags; only in the L-EG and L-R-EG constructs) (N, cleaved yes); expressed in transfected cells; host or cells: HEK293T
T2 sequence (Q920P2 1-313): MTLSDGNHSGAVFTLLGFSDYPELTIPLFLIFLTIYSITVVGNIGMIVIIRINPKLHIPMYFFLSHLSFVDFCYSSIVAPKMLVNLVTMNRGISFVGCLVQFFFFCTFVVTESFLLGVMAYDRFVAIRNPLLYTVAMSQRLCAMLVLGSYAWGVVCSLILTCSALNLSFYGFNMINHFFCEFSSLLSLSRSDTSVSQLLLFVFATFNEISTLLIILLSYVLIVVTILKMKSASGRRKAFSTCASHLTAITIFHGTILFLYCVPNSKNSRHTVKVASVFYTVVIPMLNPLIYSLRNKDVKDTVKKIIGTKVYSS
Procedure: The luciferase assay was performed as previously described. Briefly, ORs were transfected into HEK293T cells along with constructs encoding for CREB-dependent luciferase (Firefly) and a constitutively expressed luciferase (Renilla). OR activation leads to a rise in cAMP which drives an increase in Firefly luciferase expression. Firefly activity is normalized to the activity of the Renilla luciferase to control for variation in cell number and transfection efficiency. Data were collected using a FLUOstar Omega automated platereader (BMG LabTech, Cary, N.C.). For some experiments, RTP1S was also transfected.
One-way ANOVA analysis followed by the Student-Newman Keuls test was performed on the luciferase reporter assay to compare the doses of isovaleric acid (0.1-5 mM) or eugenol (100-300 μM) to the non-treated control (0 μM). As each condition was performed in triplicate, the analyses were done with an n=3, and P values ≦0.05 were deemed significant. One-way ANOVE followed by Student-Newman Keuls was also used to analyze the surface expression data in FIG. 7. […]
As mOREG is one of the ORs that reach the cell surface under every condition tested, we expressed the OR with and without the Lucy and Rho tags and assessed its response to eugenol.

Structure (SMILES)	OR activation (Firefly:Renilla ratio) (Olfr691; Lucy-Rho-Olfr691 with and without RTP1S)	OR activation (Firefly:Renilla ratio) (Olfr691; Rho-Olfr691 co-expressed with RTP1S)	OR activation (Firefly:Renilla ratio) (Olfr691; Rho-Olfr691 without RTP1S)	OR activation (Firefly:Renilla ratio) (mOREG)
CC(C)CC(=O)O [isovaleric acid]	responded to isovaleric acid in a dose-dependent manner	dose-dependent increase in the Firefly:Renilla ratio	no concentrations of isovaleric acid activated R-691; also recorded: not significantly activated at any concentration	–
C=CCc1ccc(O)c(OC)c1 [eugenol]	–	–	–	all concentrations of eugenol significantly activated; also recorded: dose-dependent activation
